Results reported in PubChem BioAssay AID248 (DTP/NCI, 2004).
“And” between values parts separate entries of the source, which are not always exact repeats. Identical values can stand only once. Inconclusive results and toxic doses are left out. Rule as the data show it: active = T/C of 150% or more; inactive = T/C below 125%.

Test system: L1210 leukemia ip in BDF1 mice, survival T/C
Assay: NCI In Vivo Anticancer Drug Screen. Data for tumor model L1210 Leukemia (intraperitoneal) in B6D2F1 (BDF1) mice
Settings: endpoint: mean survival time, higher = longer survival
In short: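 Ratio derived from survival: compound-dosed mice over vehicle-dosed mice, all bearing a transplantable tumor.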

[1] = dose: 100.0 mg/kg/injection, schedule: Q04DX003 (ip), vehicle: Klucel (hydroxypropylcellulose) (HPC)
[2] = dose: 200.0 mg/kg/injection, schedule: Q04DX003 (ip), vehicle: Klucel (hydroxypropylcellulose) (HPC)
[3] = dose: 400.0 mg/kg/injection, schedule: Q04DX003 (ip), vehicle: Klucel (hydroxypropylcellulose) (HPC)
[4] = dose: 25.0 mg/kg/injection, schedule: Q01DX009 (ip), vehicle: saline
[5] = dose: 25.0 mg/kg/injection, schedule: Q04DX003 (ip), vehicle: saline
[6] = dose: 50.0 mg/kg/injection, schedule: Q01DX009 (ip), vehicle: saline
[7] = dose: 50.0 mg/kg/injection, schedule: Q04DX003 (ip), vehicle: saline
[8] = dose: 100.0 mg/kg/injection, schedule: Q01DX009 (ip), vehicle: saline
[9] = dose: 100.0 mg/kg/injection, schedule: Q04DX003 (ip), vehicle: saline
[10] = dose: 200.0 mg/kg/injection, schedule: Q01DX009 (ip), vehicle: saline
[11] = dose: 200.0 mg/kg/injection, schedule: Q04DX003 (ip), vehicle: saline
[12] = dose: 400.0 mg/kg/injection, schedule: Q04DX003 (ip), vehicle: saline
[13] = dose: 25.0 mg/kg/injection, schedule: Q04DX002 (ip), vehicle: Klucel (hydroxypropylcellulose) (HPC)
[14] = dose: 50.0 mg/kg/injection, schedule: Q04DX002 (ip), vehicle: Klucel (hydroxypropylcellulose) (HPC)
[15] = dose: 100.0 mg/kg/injection, schedule: Q01DX001 (ip), vehicle: saline
[16] = dose: 200.0 mg/kg/injection, schedule: Q01DX001 (ip), vehicle: saline
[17] = dose: 100.0 mg/kg/injection, schedule: Q04DX002 (ip), vehicle: saline with Tween-80
[18] = dose: 200.0 mg/kg/injection, schedule: Q04DX002 (ip), vehicle: saline with Tween-80
[19] = dose: 400.0 mg/kg/injection, schedule: Q04DX002 (ip), vehicle: saline with Tween-80
[20] = dose: 100.0 mg/kg/injection, schedule: Q04DX002 (ip), vehicle: Klucel (hydroxypropylcellulose) (HPC)

Measured: T/C

Cc1cc(C)c(NC(=S)NC(=O)c2ccco2)c(C)c1
inactive: dose: 100.0 mg/kg/injection, schedule: Q01DX009 (ip), vehicle: saline with Tween-80 97 % of control | [1] 98 % of control | dose: 200.0 mg/kg/injection, schedule: Q01DX009 (ip), vehicle: saline with Tween-80 93 % of control | [2] 96 % of control | dose: 400.0 mg/kg/injection, schedule: Q01DX009 (ip), vehicle: saline with Tween-80 95 % of control | [3] 102 % of control

FC(F)(F)C(Cl)(c1ccc(Cl)cc1)c1ccc(Cl)cc1
inactive: dose: 100.0 mg/kg/injection, schedule: Q04DX003 (sc), vehicle: olive oil, sesame oil, peanut oil 102 % of control | dose: 400.0 mg/kg/injection, schedule: Q04DX003 (sc), vehicle: olive oil, sesame oil, peanut oil 100 % of control

CC1C(C)(C)C1(Cl)Cl (centres undefined)
inactive: dose: 50.0 mg/kg/injection, schedule: Q01DX009 (ip), vehicle: saline sonified 92 % of control | dose: 100.0 mg/kg/injection, schedule: Q01DX009 (ip), vehicle: saline sonified 92 % of control | dose: 200.0 mg/kg/injection, schedule: Q01DX009 (ip), vehicle: saline sonified 101 % of control

[O-][n+]1c2ccc(Cl)cc2nc2ccc(Cl)cc21
inactive: dose: 25.0 mg/kg/injection, schedule: Q04DX003 (ip), vehicle: Klucel (hydroxypropylcellulose) (HPC) 95 % of control | dose: 50.0 mg/kg/injection, schedule: Q04DX003 (ip), vehicle: Klucel (hydroxypropylcellulose) (HPC) 93 % of control | [1] 92 % of control and 88 % of control

C[S+](C)Cc1ccc(C(=O)Oc2ccc([N+](=O)[O-])cc2)cc1
inactive: [4] 100 % of control | [5] 97 % of control | [6] 98 % of control | [7] 100 % of control | [8] 96 % of control and 102 % of control | [9] 100 % of control and 101 % of control | [10] 87 % of control

C=CCC1(CCCCC)C(=O)NC(=S)NC1=O
inactive: dose: 75.0 mg/kg/injection, schedule: Q01DX001 (ip), vehicle: saline 100 % of control | dose: 150.0 mg/kg/injection, schedule: Q01DX001 (ip), vehicle: saline 100 % of control

O=Nc1ccc(N(CCO)CCO)cc1
inactive: dose: 5.0 mg/kg/injection, schedule: Q01DX001 (ip), vehicle: saline 97 % of control | dose: 10.0 mg/kg/injection, schedule: Q01DX001 (ip), vehicle: saline 97 % of control | dose: 20.0 mg/kg/injection, schedule: Q01DX001 (ip), vehicle: saline 101 % of control | dose: 40.0 mg/kg/injection, schedule: Q01DX001 (ip), vehicle: saline 111 % of control

COc1ccc(/C=C/C=C/C(=O)O)cc1OC
inactive: dose: 50.0 mg/kg/injection, schedule: Q01DX001 (ip), vehicle: other 102 % of control | dose: 100.0 mg/kg/injection, schedule: Q01DX001 (ip), vehicle: other 98 % of control | dose: 200.0 mg/kg/injection, schedule: Q01DX001 (ip), vehicle: other 107 % of control | dose: 400.0 mg/kg/injection, schedule: Q01DX001 (ip), vehicle: other 91 % of control

CCC1(c2ccccc2)CN(C)C1=O (centres undefined)
inactive: [4] 103 % of control | [5] 92 % of control | [6] 106 % of control | [7] 97 % of control | [8] 105 % of control | [9] 97 % of control | [10] 102 % of control | [11] 95 % of control | dose: 400.0 mg/kg/injection, schedule: Q01DX009 (ip), vehicle: saline 100 % of control | [12] 92 % of control

COC(=O)C1C(c2ccc(-c3ccccc3)cc2)N1C(C)C (centres undefined)
inactive: [1] 101 % of control | [2] 95 % of control | [3] 98 % of control

O=c1cc(C(F)(F)F)[nH]c2ccccc12
inactive: [13] 106 % of control | [14] 98 % of control

O=C(O)c1cc([N+](=O)[O-])cs1
inactive: [15] 98 % of control | [16] 104 % of control

O=C1/C(=C\c2ccccc2)C(NC2CCCCC2)c2ccccc21 (centres undefined)
inactive: dose: 3.12 mg/kg/injection, schedule: Q01DX009 (ip), vehicle: Klucel (hydroxypropylcellulose) (HPC) 108 % of control | dose: 6.25 mg/kg/injection, schedule: Q01DX009 (ip), vehicle: Klucel (hydroxypropylcellulose) (HPC) 101 % of control | dose: 12.5 mg/kg/injection, schedule: Q01DX009 (ip), vehicle: Klucel (hydroxypropylcellulose) (HPC) 95 % of control

CC(=O)OCC1OC(N2C(=O)/C(=C/c3ccc4c(c3)OCO4)SC2=S)C(OC(C)=O)C(OC(C)=O)C1OC(C)=O (centres undefined)
inactive: dose: 12.5 mg/kg/injection, schedule: Q01DX005 (ip), vehicle: other 102 % of control | dose: 25.0 mg/kg/injection, schedule: Q01DX005 (ip), vehicle: other 100 % of control | dose: 50.0 mg/kg/injection, schedule: Q01DX005 (ip), vehicle: other 96 % of control | dose: 100.0 mg/kg/injection, schedule: Q01DX005 (ip), vehicle: other 94 % of control | dose: 200.0 mg/kg/injection, schedule: Q01DX005 (ip), vehicle: other 94 % of control

O=C1NC(=O)C(=O)C(=O)N1
inactive: [6] 94 % of control | [7] 93 % of control | [15] 94 % of control | [8] 97 % of control | [9] 97 % of control | [16] 108 % of control | [10] 103 % of control | [11] 97 % of control

S=C1SC2(CCCCCC2)NC2=C1CCCCC2
inactive: [17] 103 % of control | [18] 89 % of control | [19] 89 % of control

CCOC(=O)CC/C(C)=N\N(C)C
inactive: [9] 93 % of control | [11] 97 % of control | [12] 93 % of control

CCOP(=O)(OCC)N1CC1c1ccccc1 (centres undefined)
inactive: dose: 75.0 mg/kg/injection, schedule: Q01DX001 (ip), vehicle: carboxymethylcellulose (CMC) 114 % of control

O=C(O)CCC1(CCC(=O)O)OCCO1.[Ag]
inactive: dose: 9.38 mg/kg/injection, schedule: Q01DX001 (ip), vehicle: other 97 % of control | dose: 18.75 mg/kg/injection, schedule: Q01DX001 (ip), vehicle: other 97 % of control | dose: 37.5 mg/kg/injection, schedule: Q01DX001 (ip), vehicle: other 100 % of control

CCOC(=O)CCC(=O)N(C)CCc1ccc(OC)c(OC)c1
inactive: [13] 117 % of control | [14] 101 % of control | [20] 101 % of control

CCC(NC(=O)c1ccccc1)C(=O)O (centres undefined)
inactive: [1] 95 % of control | [2] 101 % of control | [3] 103 % of control

CC(=O)c1cc(C)ccc1O
inactive: [1] 93 % of control | [2] 92 % of control

C[N+]12C(=O)CC3OCC=C4C[N+]5(C)CCC6(c7ccccc71)C2C3C4CC65O (centres undefined)
inactive: dose: 9.5 mg/kg/injection, schedule: Q01DX001 (ip), vehicle: other 92 % of control | dose: 19.0 mg/kg/injection, schedule: Q01DX001 (ip), vehicle: other 101 % of control

O=C(O)c1cc(Br)ccc1Br
inactive: [17] 102 % of control | [18] 110 % of control | [19] 105 % of control

C=CCCCCCCCCC(=O)N/N=C/c1ccccc1OC
inactive: [20] 110 % of control | dose: 200.0 mg/kg/injection, schedule: Q04DX002 (ip), vehicle: Klucel (hydroxypropylcellulose) (HPC) 104 % of control | dose: 400.0 mg/kg/injection, schedule: Q04DX002 (ip), vehicle: Klucel (hydroxypropylcellulose) (HPC) 110 % of control

CC(=O)OC1CCC2(C)C3CCC4(C)C(CCC45OC5(C)OC(C)=O)C3CC3OC32C1 (centres undefined)
inactive: dose: 50.0 mg/kg/injection, schedule: Q01DX001 (sc), vehicle: steriod suspending solution 111 % of control | dose: 100.0 mg/kg/injection, schedule: Q01DX001 (sc), vehicle: steriod suspending solution 98 % of control | dose: 200.0 mg/kg/injection, schedule: Q01DX001 (sc), vehicle: steriod suspending solution 106 % of control | dose: 400.0 mg/kg/injection, schedule: Q01DX001 (sc), vehicle: steriod suspending solution 101 % of control

COc1ccc(OC=O)cc1OC
inactive: [6] 98 % of control | [8] 102 % of control | dose: 100.0 mg/kg/injection, schedule: Q04DX003 (ip), vehicle: acetone 97 % of control | [10] 101 % of control | dose: 200.0 mg/kg/injection, schedule: Q04DX003 (ip), vehicle: acetone 107 % of control
